“And” between values parts separate entries of the source, which are not always exact repeats. Equal values may be shown once. Read-outs that look alike come from different tables or passages of the source.
How the values were obtained:
[1] = cited from earlier work
[2] = Spermine-templated DCL of building blocks 1-4; conditions: spermine DCL of 1-4
Procedure: (§1) Building blocks 2 and 3 equipped with carboxylate moieties to establish interactions with the protonated amine groups of the spermine were allowed to equilibrate at pH 7.8 and 6 °C (Fig. 8a). As expected in our control experiment, the major component in the absence of spermine was the linear tetramer (2)2(3)2. After the addition of spermine, the linear tetramer “decomposed” in order to form mainly the cyclic tetramer of (2)4, and the (3)2 dimer (Fig. 8a). As it was reported, several studies determined that the spermine was threaded through the macrocycle fixing the configuration to a highly symmetric stereoisomer of (2)4[36]. […] The precise composition of the DCL (with and without spermine), was assessed by measuring the relative peak area (RPA). Indeed, the normalized change of RPA was used to quantify the spermine influence in the outcome (Supplementary Fig. 42)[46]. The same template (spermine) was tested in our reference DCL of four building blocks (1–4) in the absence and presence of Secox (Fig. 8b). […] Additionally, two different templates were tested to confirm the absence of conflict between selenocystine and the templating effect. Spermidine and NADPH were introduced in our 4 building blocks DCL (1–4) in the absence and presence of Secox, leading to the amplification of different species and getting the same results as the non-catalyzed DCLs (Supplementary Figs. 44, 45, Supplementary Tables 7–10, and Supplementary Methods).
The mixture was stabilized in 96 h. […] The mixture was stabilized after 24 h. […] It was stabilized in 24 h. […] DCL was equilibrated in 96 h. DCLs were performed without stirring at 6 °C and analyzed by HPLC-MS.

[3] = target: bovine serum albumin (BSA) (Bos taurus, UniProt P02769); assay: BSA-directed DCL of building blocks 1-4; parameters: purchased Roche; key to NC of RPA: normalized change of relative peak area (RPA) vs blank DCL; conditions: blank vs BSA-DCL; BSA 57 µM, Secox 5% mol, 24 h
glucose oxidase (GOx) = glucose oxidase (GOx) (Aspergillus niger, UniProt P13006); assay: Glucose oxidase-directed DCL of building blocks 1-4; parameters: purchased Sigma Aldrich; unit not given here; conditions: blank vs GOx template DCL; GOx 57 μM, Secox 5% mol, 24 h
Procedure: The equilibration of the DCL was completed after 24 h (Fig. 9) and the oligomers were identified by HPLC-MS (Supplementary Figs. 4–20). The precise composition of the DCL (with and without GOx), was assessed by measuring the relative peak area (RPA). The normalized change of RPA was used to quantify the protein influence in the final DCL showing the amplification of the dimer of compound 4, that is (4)2 (Fig. 9b). Control experiments were set up to verify that the amplification of the dimer was not due to unspecific binding. Firstly the GOx was replaced by the bovine serum albumin (BSA). A stability study of BSA under the DCL conditions was performed using a fluorescence technique confirming the BSA stability in the DCL experiment (Supplementary Fig. 48)[50].
The DCL was stabilized for 24 h at 6 °C. Then, GOx was removed by ultracentrifugation through an Amicon ultra-filter (100 KDa). HPLC analysis was performed.

[4] = NADPH-templated DCL of building blocks 1-4;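 further: values are means ± SD of DCC experiments run in triplicate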
[5] = Spermidine-templated DCL of building blocks 1-4;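 further: Spermidine-templated dynamic combinatorial library, normalized change of RPA compared between Secox-free and Secox-containing libraries, DCC runs done in triplicate, values given as mean ± SD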
[6] = Equilibration of the thiol-disulfide DCL of building blocks 1-4 followed by HPLC-MS; conditions: 190 μM as fifth building block; Tris 20 mM pH 7.8, 6 °C; control 4 days
Procedure: DMSO percentage is 2.5% v/v. […] DCLs were analyzed by HPLC-MS until equilibration without stirring at 6 °C.
Control DCL. […] DMSO percentage is 2.5% v/v. Regarding Secox catalyzed DCL, different stocks of Secox were carried out in order to study the percentages of Secox. […] The DCLs were prepared at 6 °C without stirring and analyzed in several hours until the complete stabilization.

[7] = Spermine-templated DCL of building blocks 2 and 3; conditions: spermine DCL of 2 and 3
Procedure: as §1
The DCL was stabilized at 96 h. […] The mixture was stabilized after 24 h. […] The DCL was stabilized at 96 h. […] The DCL was analyzed in 96 h after equilibration. DCLs were performed without stirring at 6 °C and analyzed by HPLC-MS.

Chain of bovine serum albumin (BSA) (P02769 25-607): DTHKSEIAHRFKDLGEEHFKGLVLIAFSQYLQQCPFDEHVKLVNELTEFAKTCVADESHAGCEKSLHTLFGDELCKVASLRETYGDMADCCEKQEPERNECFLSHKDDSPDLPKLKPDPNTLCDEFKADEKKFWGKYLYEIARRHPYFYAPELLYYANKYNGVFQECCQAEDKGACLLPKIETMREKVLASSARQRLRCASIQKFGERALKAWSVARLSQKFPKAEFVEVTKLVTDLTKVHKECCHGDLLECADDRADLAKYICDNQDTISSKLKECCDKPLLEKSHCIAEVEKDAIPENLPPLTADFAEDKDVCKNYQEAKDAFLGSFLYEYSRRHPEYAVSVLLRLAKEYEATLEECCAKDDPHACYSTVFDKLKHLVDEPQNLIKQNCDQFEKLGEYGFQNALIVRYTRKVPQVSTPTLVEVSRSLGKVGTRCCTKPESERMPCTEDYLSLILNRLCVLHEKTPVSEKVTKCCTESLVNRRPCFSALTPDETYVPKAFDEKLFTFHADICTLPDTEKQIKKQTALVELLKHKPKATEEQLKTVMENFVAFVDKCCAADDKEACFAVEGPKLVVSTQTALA
Chain of glucose oxidase (GOx) (P13006 17-605): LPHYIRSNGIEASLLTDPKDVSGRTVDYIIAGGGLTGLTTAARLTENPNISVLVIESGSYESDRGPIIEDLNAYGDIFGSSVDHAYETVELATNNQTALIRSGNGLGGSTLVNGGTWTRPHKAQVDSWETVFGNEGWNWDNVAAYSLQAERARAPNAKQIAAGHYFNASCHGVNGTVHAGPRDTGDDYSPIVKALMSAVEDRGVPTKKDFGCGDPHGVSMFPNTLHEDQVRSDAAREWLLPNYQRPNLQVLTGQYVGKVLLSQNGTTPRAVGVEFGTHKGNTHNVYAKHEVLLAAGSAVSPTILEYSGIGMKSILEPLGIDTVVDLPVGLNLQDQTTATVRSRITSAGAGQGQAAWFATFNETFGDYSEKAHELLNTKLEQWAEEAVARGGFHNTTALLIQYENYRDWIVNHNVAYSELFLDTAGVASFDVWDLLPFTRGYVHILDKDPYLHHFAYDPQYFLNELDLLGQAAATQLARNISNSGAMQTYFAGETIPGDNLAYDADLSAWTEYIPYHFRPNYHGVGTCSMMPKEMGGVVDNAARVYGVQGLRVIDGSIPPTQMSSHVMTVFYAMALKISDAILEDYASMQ

| SMILES | pKa ([1]; Sec) | Normalized Change of RPA (NC) ([2]; 0% Secox) | Normalized Change of RPA (NC) ([2]; 5% Secox) | NC of RPA [3] | NC of RPA (glucose oxidase (GOx)) | Normalized Change of RPA (NC) ([4]; 0% Secox) | Normalized Change of RPA (NC) ([4]; 5% Secox) | Normalized Change of RPA (NC) ([5]; 0% Secox) | Normalized Change of RPA (NC) ([5]; 5% Secox) | DCL equilibration time [6] | Normalized Change of RPA (NC) ([7]; Secox) | Normalized Change of RPA (NC) ([7]; no Secox) | pKa ([1]; Cys thiol group) |
| --- | --- | --- | --- | --- | --- | --- | --- | --- | --- | --- | --- | --- | --- |
| N[C@@H](C[SeH])C(=O)O [Sec, selenocysteine] | 5.43 and ~ 5.43 |  |  |  |  |  |  |  |  |  |  |  |  |
| O=C(O)c1cccc(SSc2cc(SSc3cc(SSc4cccc(C(=O)O)c4)cc(C(=O)O)c3)cc(C(=O)O)c2)c1 [(1)2(3)2] |  | 0,46 | 0,38 | 0,63 | -0,36 | -0,06 | -0,06 | 0,34 | 0,27 |  |  |  |  |
| O=C(O)c1cc2cc(c1)SSc1cc(cc(C(=O)O)c1)SSc1cc(cc(C(=O)O)c1)SS2 [(1)3] |  | -0,65 | -0,66 | -0,19 | -0,21 | -0,70 | -0,68 | -0,42 | -0,44 |  |  |  |  |
| O=C(O)c1cccc(SSc2cc(C(=O)O)c(SSc3cc(C(=O)O)c(SSc4cccc(C(=O)O)c4)cc3C(=O)O)cc2C(=O)O)c1 [(2)2(3)2] |  | -1,00 | -1,00 | -1,00 | -1,00 | -0,69 | -0,64 | -1,00 | -1,00 |  |  |  |  |
| O=C(O)c1cc(SSc2ccccc2)cc(SSc2cc(C(=O)O)c(SSc3ccccc3)cc2C(=O)O)c1 [(1)(2)(4)2] |  | -1,00 | -1,00 | 2,84 | -1,00 | -1,00 | -1,00 | -1,00 | -1,00 |  |  |  |  |
| O=C(O)c1cc(SSc2ccccc2)cc(SSc2ccccc2)c1 [(1)(4)2] |  |  |  | 45,89 |  |  |  |  |  |  |  |  |  |
| O=C(O)c1cc(SSc2cc(C(=O)O)c(SSc3ccccc3)cc2C(=O)O)c(C(=O)O)cc1SSc1ccccc1 [(2)2(4)2] |  | -1,00 | -1,00 | 0,31 | -1,00 | 0,13 | 0,11 | -1,00 | -1,00 |  |  |  |  |
| N[C@@H](CSSC[C@H](N)C(=O)O)C(=O)O [Cysox, cystine] |  |  |  |  |  |  |  |  |  | 3 days |  |  |  |
| O=C(O)c1cccc(SSc2cc(SSc3ccccc3)cc(C(=O)O)c2)c1 [(3)(1)(4)] |  | -0,51 | -0,51 | 2,28 | 0,54 | -0,82 | -0,76 | -1,00 | -1,00 |  |  |  |  |
| O=C(O)c1cccc(SSc2cccc(C(=O)O)c2)c1 [(3)2, 3,3'-disulfanediyldibenzoic acid] |  | 0,49 | 0,49 | -0,64 | -0,35 | 0,56 | 0,49 | 0,51 | 0,51 |  | 0.1 | 0.1 |  |
| O=C(O)c1cccc(SSc2cc(C(=O)O)c(SSc3ccccc3)cc2C(=O)O)c1 [(2)(3)(4)] |  | -0,75 | -0,74 | 0,95 | -0,32 | -0,12 | -0,12 | -0,64 | -0,65 |  |  |  |  |
| O=C(O)c1cccc(SSc2cc(C(=O)O)c(SSc3cccc(C(=O)O)c3)cc2C(=O)O)c1 [(2)(3)2] |  | -0,26 | -0,28 | -1,00 | 0,72 | 2,41 | 2,37 | -0,11 | -0,19 |  |  |  |  |
| N[C@@H](CS)C(=O)O [Cys, cysteine] |  |  |  |  |  |  |  |  |  |  |  |  | 8.22 and ~ 8.22 |
| O=C(O)c1cc2cc(c1)SSc1cc(cc(C(=O)O)c1)SSc1cc(cc(C(=O)O)c1)SSc1cc(cc(C(=O)O)c1)SS2 [(1)4] |  | -0,14 | -0,12 | 0,14 | -0,86 | -0,84 | -0,88 | -0,47 | -0,43 |  |  |  |  |
| O=C(O)c1cccc(SSc2cc(SSc3cccc(C(=O)O)c3)cc(C(=O)O)c2)c1 [(1)(3)2] |  | 1,19 | 1,25 | -0,75 | -0,46 | 1,24 | 1,23 | 0,83 | 0,86 |  |  |  |  |
| O=C(O)c1cc(SSc2ccccc2)c(C(=O)O)cc1SSc1ccccc1 [(2)(4)2] |  | 0,08 | 0,08 | 1,30 | 0,19 | -0,16 | -0,18 | 0,06 | 0,04 |  |  |  |  |

From publication PMC7794297
